Measured values taken from patent US8119643B2, “Benzoimidazolyl-pyrazine compounds for inflammation and immune-related uses” (Synta Pharmaceuticals Corp., priority 2006, dated 2012).
“Also recorded” adds a separate entry of the source.

Experiments:
[1] = system: Delayed-Type Hypersensitivity (DTH) reaction; assay: Inhibition of delayed-type hypersensitivity (DTH) reaction in rats; type: in vivo, Lewis rats; details: rat DTH; for Inhibition of gross change (%) Ear thickness (mm) / Inhibition of gross change (%) Ear weight (mg): 15 mg/kg orally at −2, +3, +9 hr, 24 hr after OVA challenge, relative to vehicle-treated group; for effect on ear weight after ovalbumin challenge / effect on ear thickness after ovalbumin challenge: compared to vehicle alone; for effect on ear weight after ovalbumin challenge: FIGS. 1 and 2; for effect on ear thickness after ovalbumin challenge: FIGS. 3 and 4
Procedure: Lewis rats (n=7 each group) were sensitized with chicken ovalbumin (OVA; Sigma, A5503) and complete Freund's adjuvant (CFA; Sigma F5881) was injected into tail base by s.c. on day 0. On day 7, the animals were challenged with ovalbumin (OVA) on their right ears.
Compounds 1 and 10 were prepared in vehicle solution (20% Vitamin E TPGS and 80% PEG-8).
Female Lewis rats, 6-8 weeks of age, were obtained from Charles River Laboratories and permitted to acclimate for one week prior to experimental procedures. Rodents were allowed water and food ad libitum. Animals were housed in accordance with the Institutional Animal Care and Use Committee (IACUC), and experiments were performed in compliance with IACUC guidelines.
Rat ears were measured with a dial thickness gauge (Mitutoyo gauge #8, Mitutoyo, USA). The swelling response was calculated by subtracting the ear thickness before challenge (baseline) from that of the same ear after challenge. To measure the ear weight, both left and right ears of euthanized rats were punched out with cork holer, the ear weight change was calculated by subtracting the saline-treated left ear weight from that of the OVA-challenged right ear weight.
Delayed-type hypersensitivity is an in vivo T cell-dependent immune response manifested as an inflammatory reaction that reaches peak intensity 24 hr after OVA challenge. To determine the immunosuppressive effect of Compounds 1 and 10 in the rat DTH reaction, groups of rats (n=7) were administered with either vehicle, Compound 1 or Compound 10, orally three times, starting 2 hr before ear challenge, and 3 and 9 hr after ear challenge.

[2] = system: IL-2 production; assay: Inhibition of IL-2 production in PHA-activated Jurkat cells (ELISA); type: cell-based; details: Homo sapiens, PHA 2.5 μg/mL, 20 hours, IL-2 ELISA

SMILES | IC50 [2] | further results
COc1ccc2c(c1)nc(C(F)(F)F)n2-c1cnc(NC(=O)c2ccccc2C)cn1 [Compound 10, N-[5-(5-Methoxy-2-trifluoromethyl-benzoimidazol-1-yl)-pyrazin-2-yl]-2-methyl-benzamide] | 12 nM | Inhibition of gross change (%) Ear thickness (mm) [1]: 15%; Inhibition of gross change (%) Ear weight (mg) [1]: 24%; effect on ear weight after ovalbumin challenge [1]: even stronger effect on reducing ear thickness and weight after challenge than Compound 1; also recorded: reduced ear thickness and weight after challenge more than dosing with cyclosporine A; effect on ear thickness after ovalbumin challenge [1]: even stronger effect on reducing ear thickness and weight after challenge than Compound 1; also recorded: reduced ear thickness and weight after challenge more than dosing with cyclosporine A
COc1ccc2c(c1)nc(C(F)(F)F)n2-c1cnc(NC(=O)c2c(F)cccc2F)cn1 [Compound 1, 2,6-Difluoro-N-[5-(5-methoxy-2-trifluoromethyl-benzoimidazol-1-yl)-pyrazin-2-yl]-benzamide] | 6 nM | Inhibition of gross change (%) Ear thickness (mm) [1]: 77%; Inhibition of gross change (%) Ear weight (mg) [1]: 79%; effect on ear weight after ovalbumin challenge [1]: decreased ear weight; also recorded: significantly inhibited; effect on ear thickness after ovalbumin challenge [1]: decreased ear thickness; also recorded: significantly inhibited
COc1ccc2c(c1)nc(C(F)(F)F)n2-c1cnc(NCC2CCCCC2)cn1 [Compound 73, Cyclohexylmethyl-[5-(5-methoxy-2-trifluoromethyl-benzoimidazol-1-yl)-pyrazin-2-yl]-amine] | > 1000 nM | 
COc1ccc2c(c1)nc(C(F)(F)F)n2-c1cnc(NCc2ccccc2OC)cn1 [Compound 102, (2-Methoxy-benzyl)-[5-(5-methoxy-2-trifluoromethyl-benzoimidazol-1-yl)-pyrazin-2-yl]-amine] | > 1000 nM | 
COc1cccc(C(=O)Nc2cnc(-n3c(C(F)(F)F)nc4cc(OC)ccc43)cn2)c1 [Compound 104, 3-Methoxy-N-[5-(5-methoxy-2-trifluoromethyl-benzoimidazol-1-yl)-pyrazin-2-yl]-benzamide] | 929 nM | 
COc1ccc2c(c1)nc(C(F)(F)F)n2-c1cnc(NC(=O)c2ccc(Cl)cc2F)cn1 [Compound 9, 4-Chloro-2-fluoro-N-[5-(5-methoxy-2-trifluoromethyl-benzoimidazol-1-yl)-pyrazin-2-yl]-benzamide] | 55 nM | 
COC(=O)c1ccc2c(c1)nc(C(F)(F)F)n2-c1cnc(NC(=O)c2c(F)cccc2F)cn1 [Compound 25, 1-[5-(2,6-Difluoro-benzoylamino)-pyrazin-2-yl]-2-trifluoromethyl-1H-benzoimidazole-5-carboxylic acid methyl ester] | 29 nM | 
COc1ccc2c(c1)nc(C(F)(F)F)n2-c1cnc(NC(=O)c2cccc(F)c2)cn1 [Compound 88, 3-Fluoro-N-[5-(5-methoxy-2-trifluoromethyl-benzoimidazol-1-yl)-pyrazin-2-yl]-benzamide] | 101 nM | 
COc1ccc2c(c1)nc(C(F)(F)F)n2-c1cnc(NC(=O)c2cc(OC)c(OC)cc2OC)cn1 [Compound 136, 2,4,5-Trimethoxy-N-[5-(5-methoxy-2-trifluoromethyl-benzoimidazol-1-yl)-pyrazin-2-yl]-benzamide] | > 1000 nM | 
CCOC(=O)c1cccc(C(=O)Nc2cnc(-n3c(C(F)(F)F)nc4cc(OC)ccc43)cn2)c1 [Compound 114, N-[5-(5-Methoxy-2-trifluoromethyl-benzoimidazol-1-yl)-pyrazin-2-yl]-isophthalamic acid ethyl ester] | 88 nM | 
COc1ccc2c(c1)nc(C(F)(F)F)n2-c1cnc(NC(=O)c2cccc([N+](=O)[O-])c2C)cn1 [Compound 135, N-[5-(5-Methoxy-2-trifluoromethyl-benzoimidazol-1-yl)-pyrazin-2-yl]-2-methyl-3-nitro-benzamide] | 103 nM | 
COc1ccc2c(c1)nc(C(F)(F)F)n2-c1cnc(NC(=O)c2ccc(C(F)(F)F)cc2OC)cn1 [Compound 144, 2-Methoxy-N-[5-(5-methoxy-2-trifluoromethyl-benzoimidazol-1-yl)-pyrazin-2-yl]-4-trifluoromethyl-benzamide] | > 1000 nM | 
COC(=O)c1ccc2c(c1)nc(C(F)(F)F)n2-c1cnc(NC(=O)c2ccncc2C)cn1 [Compound 28, 1-{5-[(3-Methyl-pyridine-4-carbonyl)-amino]-pyrazin-2-yl}-2-trifluoromethyl-1H-benzoimidazole-5-carboxylic acid methyl ester] | 112 nM | 
COc1ccc2c(c1)nc(C(F)(F)F)n2-c1cnc(NC(=O)c2ccc(F)cc2)cn1 [Compound 86, 4-Fluoro-N-[5-(5-methoxy-2-trifluoromethyl-benzoimidazol-1-yl)-pyrazin-2-yl]-benzamide] | 150 nM | 
COc1ccc2c(c1)nc(C(F)(F)F)n2-c1cnc(NC(=O)c2ccc(OC)c(OC)c2)cn1 [Compound 126, 3,4-Dimethoxy-N-[5-(5-methoxy-2-trifluoromethyl-benzoimidazol-1-yl)-pyrazin-2-yl]-benzamide] | > 1000 nM | 
